For orientation: MIC means the lowest concentration found to suppress growth.

The values that follow come from ChEMBL document CHEMBL1149984, “Hygromycin A: preparation of aminocyclitol analogs defining the minimum functionality required for biological activity” (1992).

Structures are written as SMILES. ≈ marks a conversion by molar mass, not a printed value.

Assay [1] relates to Brachyspira hyodysenteriae. Put plainly: Minimum inhibitory concentration against Serpulina hyodysenteriae was determined. Type of assay: functional.
The subject of another assay is Pasteurella multocida. Put plainly: Minimum inhibitory concentration against Pasteurella multocida was determined. The format is functional.
The mark [2] stands for this setting: Brachyspira hyodysenteriae, read-out: MIC.
The mark [3] stands for this setting: Pasteurella multocida, read-out: MIC.

Turning to `C/C(=C\c1ccc(O[C@@H]2O[C@H]([C@H](C)O)[C@@H](O)[C@@H]2O)c(O)c1)C(=O)N[C@@H]1CCCC[C@@H]1O`, the MIC (in assay [1] (setting [2]); with Pasteurella multocida (setting [3])) was more than 200 µg/mL throughout.
Turning to `C=CCOc1ccc(/C=C(\C)C(=O)N[C@@H]2[C@H](O)[C@@H](O)CC[C@@H]2O)cc1O`, the minimal inhibitory concentration (MIC) in assay [1] is 100 µg/mL (≈ 275 µM); with Pasteurella multocida, more than 200 µg/mL.
Take `C=CCOc1ccc(/C=C(\C)C(=O)N[C@@H]2[C@H](O)CCC[C@@H]2O)cc1O`: the MIC in assay [1] (setting [2]) was determined as 12.5 µg/mL (≈ 36 µM); in the assay with Pasteurella multocida (setting [3]) it was 100 µg/mL (≈ 288 µM).
The like results for `C=CCOc1ccc(/C=C(\C)C(=O)N[C@@H]2[C@H](O)[C@@H](O)[C@H]3OCO[C@H]3[C@@H]2O)cc1O` were, in that order, 0.78 µg/mL (≈ 1.91 µM) and 1.56 µg/mL (≈ 3.83 µM).
With `C=CCOc1ccc(/C=C(\C)C(=O)N[C@@H]2[C@H](O)[C@@H](O)CC[C@@H]2O)cc1O` (racemic), the MIC amounted to 6.25 µg/mL (≈ 17.2 µM) in assay [1] and 25 µg/mL (≈ 68.8 µM) against Pasteurella multocida.
`CC(=O)[C@H]1O[C@@H](Oc2ccc(/C=C(\C)C(=O)N[C@@H]3[C@H](O)[C@@H](O)[C@H]4OCO[C@H]4[C@@H]3O)cc2O)[C@@H](O)[C@@H]1O` [HYGROMYCIN A]: the MIC (in assay [1] (setting [2]); in the assay on Pasteurella multocida (setting [3])) was 1.56 µg/mL (≈ 3.05 µM) in each case.
